# Assay results taken from patent US20240393292A1, “ALLERGY ANTIGEN AND EPITOPE THEREOF” (HOYU CO., LTD., priority 2019, published 2024).
# Entries after “also recorded” stand apart in the source; their conditions may differ.
# Assays:
# Assay type in all cases: binding, human
# [1] = system: IgE antibodies from patients; test: Wheat epitope mapping (3): alanine/glycine scanning; settings: from analysis of epitope mapping (A) to (C); many samples
# Method: From the amino acid sequences identified above in (A), a library of peptide fragments in which amino-terminal amino acids were substituted one by one by alanine (or glycine when the original amino acid was alanine) according to a technique called alanine/glycine scanning (Non Patent Literature 5) was prepared by the same technique as described above. The presence or absence of binding of an IgE antibody present in the serum of a patient to each peptide fragment was measured by the same technique as described above.
# Chemiluminescence intensity in images obtained by measurement was converted into a numeric value in the same manner as in (A). Numeric values determined from images obtained from secondary antibody measurement values were used as control values. The control value of each peptide was subtracted from numeric values determined from images obtained from results about the serum of 49 patients. When values obtained using the sequences (SEQ ID NOs: 29, 131, 191, 281, 346, 414, 493, 562, 640, 706, 776, 899, 974, 1010, 1089, 1142, 1166, 1209, 1257, 1297, 1367, 1403, 1508, 1566, 1598, 1608, 1685, 1753, 1789, 1836, 1895, 1977, 2004, 2027, 2068, 2154, 2217, 2265, 2309, 2342, 2419, 2491, 2545, 2613, 2631, 2674, 2701, 2774, 2809 and 2830) serving as the basis of alanine/glycine scanning were defined as 100%, it was determined that: a peptide having a value of the difference that was less than 30% had no binding activity against IgE antibodies; a peptide having a value of the difference that was 30% or more and less than 50% had binding activity, albeit poor, against IgE antibodies; a peptide having a value of the difference that was 50% or more and less than 70% had binding activity, albeit somewhat poor, against IgE antibodies; and a peptide having a value of the difference that was 70% or more had equivalent or good binding activity against IgE antibodies and was thus a peptide had remaining binding activity against IgE antibodies.
# By analysis of the results of (A) to (C), common sequences important for exertion of original antigenicity were found in regions important for binding to IgE antibodies from patients, in the sequences serving as the basis of alanine/glycine scanning.
# [2] = system: IgE antibodies from patients having allergies to each food; test: Confirmation of epitope cross-reactivity by ELISA with biotinylated peptides
# Excerpt: Amino acids other than amino acids important for maintaining binding to IgE antibodies, in each of the epitope sequences found in the wheat proteins in Table 2 were defined as any given amino acid (X). NCBI was searched for proteins having the key sequences having the amino acid residues X in cooking ingredient allergens carried in common by each of the patients. As a result, an amino acid sequence contained in a sequence in each food described in the column “Food with which cross-reactivity was confirmed” in Table 2 was identified as one example.
# The binding activity of peptides comprising the amino acid sequences described in the column “Synthesis sequence” and the rightmost column “SEQ ID NO” of Table 2 against IgE antibodies from patients having allergies to each food described in the column “Food with which cross-reactivity was confirmed” in Table 2 was confirmed by ELISA. The peptides were synthesized such that the peptides were N-terminally biotinylated by the Fmoc method.
# To be specific, ELISA was carried out according to the following procedure. • (1) The concentrations of the biotinylated peptides were adjusted to 10 μg/mL with PBST (0.1% Tween 20). • (2) Each peptide solution was added at 20 μL to each well of a 384-well plate coated with streptavidin, and shaken at room temperature for one hour. After collection of the solution, the wells were washed with PBST five times. • (3) Pierce Protein-Free (PBS) Blocking Buffer (produced by Thermo) was added at 40 μL thereto and shaken at room temperature for one hour. After removal of the solution, the wells were washed with PBST five times. • (4) 2% serum/Canget SignalSolution I (produced by TOYOBO) was added at 20 μL thereto and shaken at room temperature for one hour. After removal of the solution, the wells were washed with PBST five times. • (5) A diluted secondary antibody solution (1:10000, Canget SignalSolution II (produced by TOYOBO)) was added at 20 μL thereto and shaken at room temperature for one hour. After removal of the solution, the wells were washed with PBST five times. • (6) 1-Step Ultra TMB-ELISA (produced by Thermo) was added at 20 μL thereto and shaken at room temperature for 15 minutes. • (7) 2 M H2SO4 was added at 20 μL thereto. Absorbance at 450 nm was measured.
# Peptides having these amino acid sequences were prepared by the same procedure as described in Example 4 (A), and the presence or absence of binding thereto of IgE antibodies present in the serum of an allergic patient and the serum of a nonallergic subject was measured. The serum of two nonallergic subjects was measured, and values obtained by dividing the measurement values by an average value thereof were used.
# The bar graph of each figure depicts “absorbance of the allergic patient/absorbance of the nonallergic patient (healthy subject)”. The names of the cooking ingredients described in each graph are the names of cooking ingredients containing a polypeptide comprising an amino acid sequence serving as the basis of each synthetic sequence used.
# [3] = system: IgE antibody present in the serum of a wheat-allergic patient; test: Wheat epitope mapping (1): peptide array of overlapping 15-amino-acid peptides, chemiluminescence; settings: bound = chemiluminescence value minus N2nd value of 5 non-wheat-allergic subjects at least 35,000; serum of 49 patients
# Method: Epitope mapping was carried out using a library of overlapping peptides (length: 15 amino acids) corresponding to the amino acid sequences identified as allergy components of wheat. Specifically, the library of overlapping peptides was prepared on the basis of the amino acid sequences of SEQ ID NOs: 2, 4, 6, 8, 10, 12, 14, 16, 18, 20, 22, 24, 26 and 28.
# The peptides to be synthesized were shifted by 10 amino acids.
# For preparation of peptide arrays, the Intavis CelluSpots™ technique was used. Specifically, the peptide arrays were prepared by the following procedure: (1) synthesizing peptides of interest on amino-modified cellulose disks using an automated chemical synthesis apparatus (Intavis MultiPep RS), (2) dissolving the amino-modified cellulose disks to obtain a cellulose-bound peptide solution, and (3) spotting the cellulose-bound peptides onto coated glass slides. The details of each procedure are as described below.
# Peptide synthesis was carried out in incremental steps through 9-fluorenylmethoxycarbonyl (Fmoc) chemical reaction on amino-modified cellulose disks in 384-well synthesis plates. Specifically, amino acids in which a Fmoc group is bonded to an amino group were activated in a solution of N,N′-diisopropylcarbodiimide (DIC) and 1-hydroxybenzotriazole (HOBt) in dimethylformamide (DMF) and added dropwise to the cellulose disks so that the Fmoc group-bound amino acids were bound to the amino groups on the cellulose disks (coupling). Unreacted amino groups were capped with acetic anhydride and washed with DMF. Furthermore, the Fmoc groups were eliminated from the amino groups of the amino acids bound to the amino groups on the cellulose disks by treatment with piperidine and washing with DMF. The amino acids bound to the amino groups on the cellulose disks were repetitively subjected to the coupling, the capping, and the Fmoc group elimination described above to elongate the amino terminus for peptide synthesis.
# The peptides-bound cellulose disks of interest obtained above in the subsection titled “(1) Synthesis of peptide” were transferred to 96-well plates and treated with a side chain deprotection mixed solution of trifluoroacetic acid (TFA), dichloromethane, triisopropylsilane (TIPS), and water for deprotection of amino acid side chains. Then, the deprotected cellulose-bound peptides were dissolved in a mixed solution of TFA, […] acid (TFMSA), TIPS, and water and precipitated in […] methyl ether (TBME), and the precipitate was resuspended in dimethyl sulfoxide (DMSO) and mixed with a mixed solution of NaCl, sodium citrate, and water to obtain a peptide solution for slide spotting.
# The peptide solution for slide spotting obtained above in the subsection titled “(2) Dissolution of amino-modified cellulose disk” was spotted onto Intavis CelluSpots™ slides using Intavis Slide Spotting Robot, and the slides were dried to prepare peptide arrays.
# The presence or absence of binding, to each peptide fragment, of an IgE antibody present in the serum of a wheat-allergic patient was measured through antigen-antibody reaction using the peptide arrays. […]
# [4] = synthetic sequence, Graph No. 3, epitope of patient P8
substance,measurement,setting,value
QPIQ (REGION 1..4: note = epitope) [SEQ ID NO: 30],short polypeptide confirmed as epitope binding to IgE antibodies,[1],confirmed as epitopes binding to IgE antibodies in many samples
2881 (QEQQQYYPQQQAFFL; REGION 1..15: note = epitope) [compound 2881],Food in which cross-reactivity was confirmed,"[2]; serum IgE of patient P4 (WDEIA), epitope E3, LMW-D8(LMW-GS) B2BZD1, Spot No. 9, key sequence XXXQQXXPQQXXXXX (SEQ ID NO 203), Graph No. 1",Orchard grass
same,Food in which cross-reactivity was confirmed,"[2]; serum IgE of patient P10 (WDEIA), epitope E3, LMW-D8(LMW-GS) B2BZD1, Spot No. 9, key sequence XXXQQXXPQQQXXXX (SEQ ID NO 220), Graph No. 1",Orchard grass
same,Food in which cross-reactivity was confirmed,"[2]; serum IgE of patient P32 (WDEIA), epitope E3, LMW-D8(LMW-GS) B2BZD1, Spot No. 9, preferred sequence XXQQQXFPQQQXXXX (SEQ ID NO 268), Graph No. 1",Orchard grass
"SEQ ID NO: 345: polypeptide consisting of 4 amino acid residues, among sequences of (E4) (QPFP; REGION 1..4: note = epitope)",short polypeptide confirmed as epitope binding to IgE antibodies,[1],confirmed as epitopes binding to IgE antibodies in many samples
NEPSQLSLDQNAQGL,Food in which cross-reactivity was confirmed,"[2]; epitope E16 (Fructose-bisphosphate aldolase W5CCA9, Spot No. 4), patient P21, key sequence XXXXQXXXDQNXXXX (SEQ ID NO 1144), Graph No. 2",timothy
2922 (GIDKRV; REGION 1..6: note = epitope) [compound 2922],Food in which cross-reactivity was confirmed,[2]; [4],Wheat/barley
"SEQ ID NO: 61: polypeptide consisting of 4 amino acid residues, among sequences of (E1) (QPIQ; REGION 1..4: note = epitope)",short polypeptide confirmed as epitope binding to IgE antibodies,[1],confirmed as epitopes binding to IgE antibodies in many samples
2889 (ILFEETLYQS; REGION 1..10: note = epitope) [compound 2889],Food in which cross-reactivity was confirmed,"[2]; epitope E10 (Fructose-bisphosphate aldolase W5CCA9), listed under patient P8, Graph No. 3",Wheat/rye/barley
"SEQ ID NO: 238: polypeptide consisting of 4 amino acid residues, among sequences of (E3) (PFPQ; REGION 1..4: note = epitope)",short polypeptide confirmed as epitope binding to IgE antibodies,[1],confirmed as epitopes binding to IgE antibodies in many samples
2910 (SLAEYTVRTLQRTVP; REGION 1..15: note = epitope) [compound 2910],Food in which cross-reactivity was confirmed,"[2]; Graph No. 2, synthetic sequence listed under patient P16",Wheat/rye/barley/; also recorded: timothy
29 (QQILWYHQQQPIQQQ; REGION 1..15: note = epitope) [compound 29],Food in which cross-reactivity was confirmed,"[2]; serum IgE of patient P7 (WDEIA), epitope E1, LMW-D8(LMW-GS) B2BZD1, Spot No. 9, key sequence XXXXXXXQXXXIQQX (SEQ ID NO 45), Graph No. 1",Wheat
same,Food in which cross-reactivity was confirmed,"[2]; serum IgE of patient P13 (WDEIA), epitope E1, LMW-D8(LMW-GS) B2BZD1, Spot No. 9, key sequence XXXXXYXQXXXIQQX (SEQ ID NO 62), Graph No. 1",Wheat
same,Food in which cross-reactivity was confirmed,"[2]; serum IgE of patient P36 (WDEIA), epitope E1, LMW-D8(LMW-GS) B2BZD1, Spot No. 9, key sequence XXXXXXXQXXXIQQX (SEQ ID NO 122), Graph No. 1",Wheat
2923 (KRVIERFEK; REGION 1..9: note = epitope) [compound 2923],Food in which cross-reactivity was confirmed,[2]; [4],Wheat/barley
"SEQ ID NO: 222: polypeptide consisting of 4 amino acid residues, among sequences of (E3) (QQPF; REGION 1..4: note = epitope)",short polypeptide confirmed as epitope binding to IgE antibodies,[1],confirmed as epitopes binding to IgE antibodies in many samples
GLFGTN (GIFGTN),Food in which cross-reactivity was confirmed,"[2]; synthetic sequence tested for IgE binding by ELISA, Graph No. 3, epitope row of patient P8",Wheat/barley/rye 3
SEQ ID NO: 1508: common 15-residue epitope sequence of polypeptide (E23) (QVPLVQQQQFLGQQQ; REGION 1..15: note = epitope),binding of patient-specific IgE antibodies to 15-residue peptide,[3],confirmed to bind
SEQ ID NO: 562: common 15-residue epitope sequence of polypeptide (E8) (KPSQQQPLPLQQILW; REGION 1..15: note = epitope),binding of patient-specific IgE antibodies to 15-residue peptide,[3],confirmed to bind
SEQ ID NO: 1685: common 15-residue epitope sequence of polypeptide (E27) (PAKEAANFTSQVIIM; REGION 1..15: note = epitope),binding of patient-specific IgE antibodies to 15-residue peptide,[3],confirmed to bind
